What was measured:
human GC-A = target: T1, human GC-A (Homo sapiens, UniProt P16066); test: ex vivo cGMP generation in HEK293 GC-A cells incubated with human plasma; format: cell-based
T1 construct: expressed in transfected cells; host or cells: HEK293
T1 sequence (P16066 33-1061): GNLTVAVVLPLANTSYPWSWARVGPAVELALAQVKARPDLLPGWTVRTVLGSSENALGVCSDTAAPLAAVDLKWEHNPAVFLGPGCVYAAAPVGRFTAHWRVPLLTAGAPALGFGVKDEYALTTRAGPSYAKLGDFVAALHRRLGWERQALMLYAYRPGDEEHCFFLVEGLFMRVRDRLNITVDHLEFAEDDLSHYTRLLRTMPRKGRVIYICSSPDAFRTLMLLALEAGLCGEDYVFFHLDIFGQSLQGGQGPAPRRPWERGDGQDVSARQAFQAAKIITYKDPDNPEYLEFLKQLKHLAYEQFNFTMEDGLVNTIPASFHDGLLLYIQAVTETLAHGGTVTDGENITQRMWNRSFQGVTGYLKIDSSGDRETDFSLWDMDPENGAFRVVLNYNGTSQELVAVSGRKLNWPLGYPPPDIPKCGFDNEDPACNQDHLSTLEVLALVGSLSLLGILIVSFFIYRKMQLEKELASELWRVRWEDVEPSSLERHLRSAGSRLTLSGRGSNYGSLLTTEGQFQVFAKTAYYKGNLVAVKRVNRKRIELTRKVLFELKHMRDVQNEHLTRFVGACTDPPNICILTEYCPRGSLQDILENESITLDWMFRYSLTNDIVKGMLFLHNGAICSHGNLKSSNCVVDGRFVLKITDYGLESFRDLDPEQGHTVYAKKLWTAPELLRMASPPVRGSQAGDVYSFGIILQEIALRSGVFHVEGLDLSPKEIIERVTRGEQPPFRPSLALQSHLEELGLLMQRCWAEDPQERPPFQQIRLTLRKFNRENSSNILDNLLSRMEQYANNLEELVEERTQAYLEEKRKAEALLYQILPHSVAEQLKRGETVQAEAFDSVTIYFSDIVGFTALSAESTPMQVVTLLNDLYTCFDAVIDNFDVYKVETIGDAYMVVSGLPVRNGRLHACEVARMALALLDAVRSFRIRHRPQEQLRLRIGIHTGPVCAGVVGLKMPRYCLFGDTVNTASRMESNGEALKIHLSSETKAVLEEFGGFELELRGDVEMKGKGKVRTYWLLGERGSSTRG
T1 sequence (P01160 124-151 partner limits assumed): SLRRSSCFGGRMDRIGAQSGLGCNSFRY
Description: Methods: Stored human plasma samples from normal subjects and patients with hypertension and HF were utilized. The details of the recruitment of these participants are previously reported. All participants gave written informed consent and the Institutional Review Board (IRB) at Mayo Clinic approved this study. […] HEK293 overexpressing human GC-A were cultured and grown as described above. Cells were grown in 48-well plates to 80-90% confluence. On the day of the experiment, cells were pre-incubated with Compound 19 at doses of 1, 5 or 10 μM and without (Veh) in 250 μL treatment buffer for 5 min at 37° C. 25 μL of human plasma was then added and incubated for additional 10 min. After, cells were washed with PBS once, lysed with 0.1M HCl and intracellular cGMP levels were measured in the lysate using a commercial cGMP ELISA kit (Enzo Life Sciences, Farmingdale, N.Y.) as instructed by the manufacturer.

[1] = target: T2, particulate guanylyl cyclase B receptor (pGC-B) (Homo sapiens, UniProt P20594); test: cGMP selectivity assay in HEK cells overexpressing pGC-B with CNP; format: cell-based; conditions: in the presence of CNP
T2 construct: expressed in transfected cells; host or cells: HEK
T2 sequence (P20594 23-1047): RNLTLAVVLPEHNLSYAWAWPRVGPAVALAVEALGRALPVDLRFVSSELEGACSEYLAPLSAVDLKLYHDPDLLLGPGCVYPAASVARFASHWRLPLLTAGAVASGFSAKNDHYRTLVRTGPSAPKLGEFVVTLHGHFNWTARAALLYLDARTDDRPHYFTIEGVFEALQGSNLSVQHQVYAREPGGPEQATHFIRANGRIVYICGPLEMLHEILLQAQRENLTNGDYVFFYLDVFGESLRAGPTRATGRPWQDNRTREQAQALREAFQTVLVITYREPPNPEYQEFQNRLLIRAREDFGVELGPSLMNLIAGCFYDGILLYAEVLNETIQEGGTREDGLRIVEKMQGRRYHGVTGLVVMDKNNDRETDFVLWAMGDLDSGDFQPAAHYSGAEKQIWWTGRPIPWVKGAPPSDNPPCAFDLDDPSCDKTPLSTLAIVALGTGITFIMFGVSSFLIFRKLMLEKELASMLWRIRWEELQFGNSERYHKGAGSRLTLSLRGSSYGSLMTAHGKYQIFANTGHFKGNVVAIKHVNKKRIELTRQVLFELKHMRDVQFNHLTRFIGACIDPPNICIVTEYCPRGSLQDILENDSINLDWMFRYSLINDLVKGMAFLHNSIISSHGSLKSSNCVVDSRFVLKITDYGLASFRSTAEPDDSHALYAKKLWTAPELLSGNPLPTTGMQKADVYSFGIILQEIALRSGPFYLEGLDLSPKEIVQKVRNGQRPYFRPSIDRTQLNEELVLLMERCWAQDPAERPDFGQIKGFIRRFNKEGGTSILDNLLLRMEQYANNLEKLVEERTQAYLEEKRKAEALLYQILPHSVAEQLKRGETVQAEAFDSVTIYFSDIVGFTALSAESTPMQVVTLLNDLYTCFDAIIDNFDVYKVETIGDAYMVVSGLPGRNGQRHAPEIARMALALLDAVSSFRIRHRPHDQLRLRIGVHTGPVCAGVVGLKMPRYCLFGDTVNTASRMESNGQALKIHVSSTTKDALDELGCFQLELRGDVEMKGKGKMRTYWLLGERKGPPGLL

## CN(C)CCN1CCCC(C(=O)Nc2nc3c(F)cc(F)cc3s2)C1 (stereo not drawn) [Compound 19]
Human GC-A; 1, 5 or 10 μM with human plasma from normal, hypertension and HF cohorts
  generation of cGMP levels in HEK293 GC-A cells: potentiated the generation of cGMP levels
Human GC-A; HF plasma, highest circulating ANP and BNP
  cGMP potency by plasma cohort: greatest cGMP potency
[1]
  cGMP activity in cells expressing pGC-B: devoid of cGMP activity
